Data as given in patent US20140094465A1, “Compounds as S-Nitrosoglutathione Reductase Inhibitors” (N30 PHARMACEUTICALS, INC., priority 2011, published 2014).
pIC50: −log10 of the molar value.

biological target: T1, S-nitrosoglutathione reductase (GSNOR) (Homo sapiens, UniProt P11766); assay: GSNOR assay (inhibition of GSNOR activity, NADH absorbance at 340 nm); format: biochemical; settings: not given
T1 construct: made in house; host or cells: E. coli
Description: Various compounds were tested in vitro for their ability to inhibit GSNOR activity.
GSNOR expression and purification is described in Biochemistry 2000, 39, 10720-10729.
Pre-cultures were grown from stabs of a GSNOR glycerol stock in 2XYT media containing 100 ug/ml ampicillin after an overnight incubation at 37° C. […] GSNOR expression was induced with 0.1% arabinose in an overnight incubation at 20° C.
E. coli cell paste was lysed by nitrogen cavitation and the clarified lysate purified by Ni affinity chromatography on an AKTA FPLC (Amersham Pharmacia). The column was eluted in 20 mM Tris pH 8.0/250 mM NaCl with a 0-500 mM imidazole gradient. Eluted GSNOR fractions containing the Smt-GSNOR fusion were digested overnight with Ulp-1 at 4° C. to remove the affinity tag then re-run on the Ni column under the same conditions. GSNOR was recovered in the flowthrough fraction and for crystallography is further purified by Q-Sepharose and Heparin flowthrough chromatography in 20 mM Tris pH 8.0, 1 mM DTT, 10 uM ZnSO4.
GSNOR assay: GSNO and enzyme/NADH Solutions are made up fresh each day. The solutions are filtered and allowed to warm to room temperature. GSNO solution: 100 mM NaPO4 (pH 7.4), 0.480 mM GSNO. 396 μL of GSNO Solution is added to a cuvette followed by 8 μL of test compound in DMSO (or DMSO only for full reaction control) and mixed with the pipette tip. Compounds to be tested are made up at a stock concentration of 10 mM in 100% DMSO. 2 fold serial dilutions are done in 100% DMSO. 8 μL of each dilution are added to an assay so that the final concentration of DMSO in the assay is 1%. The concentrations of compounds tested range from 100 to 0.003 μM. Enzyme/NADH solution: 100 mM NaPO4 (pH 7.4), 0.600 mM NADH, 1.0 μg/mL GSNO Reductase. 396 μL of the Enzyme/NADH solution is added to the cuvette to start the reaction. The cuvette is placed in the Cary 3E UV/Visible Spectrophotometer and the change in 340 nm absorbance/min at 25° C. is recorded for 3 minutes. The assays are done in triplicate for each compound concentration. IC50's for each compound are calculated using the standard curve analysis in the Enzyme Kinetics Module of SigmaPlot.
Final assay conditions: 100 mM NaPO4, pH 7.4, 0.240 mM GSNO, 0.300 mM NADH, 0.5 μg/mL GSNO Reductase, and 1% DMSO. Final volume: 800 μL/cuvette.

T1 sequence (P11766 whole entry): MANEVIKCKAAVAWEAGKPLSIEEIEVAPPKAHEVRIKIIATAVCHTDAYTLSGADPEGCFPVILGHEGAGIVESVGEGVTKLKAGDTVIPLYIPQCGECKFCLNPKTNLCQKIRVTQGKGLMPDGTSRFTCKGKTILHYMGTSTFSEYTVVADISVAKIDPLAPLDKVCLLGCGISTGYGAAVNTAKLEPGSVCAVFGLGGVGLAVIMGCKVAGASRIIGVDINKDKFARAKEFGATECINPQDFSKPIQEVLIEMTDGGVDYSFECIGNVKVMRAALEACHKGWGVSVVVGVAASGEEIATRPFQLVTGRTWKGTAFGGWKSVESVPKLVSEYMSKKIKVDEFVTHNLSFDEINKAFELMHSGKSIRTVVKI

| SMILES | pIC50 |
| --- | --- |
| O=C(O)c1ccc(-n2c(C(F)(F)F)nc3cc(O)ccc3c2=O)cc1 [VIII-2, 4-(7-hydroxy-4-oxo-2-(trifluoromethyl)quinazolin-3(4H)-yl)benzoic acid] | 6.00 to 7.00 |

same assay, conditions: GSNOR inhibitor activity, Tables 1-6; read-out: IC50 range

| pIC50 | SMILES |
| --- | --- |
| > 7.00 | O=c1c(-c2ccc(-c3nnn[nH]3)cc2)c(C(F)F)oc2cc(O)ccc12 [IV-27] |
| > 7.00 | O=C(O)c1ccc(-c2ccc3c(F)c(O)ccc3n2)c(F)c1 [Compound I-56] |
| > 7.00 | O=c1[nH]c(-c2ccc(-c3c(C(F)(F)F)oc4cc(O)ccc4c3=O)c(Cl)c2)no1 [IV-40] |
| 6.00 to 7.00 | O=C(O)c1ccc(NC(=O)c2ccc(O)cc2C(F)(F)F)cc1 [VI-14, 4-(4-hydroxy-2-(trifluoromethyl)benzamido)benzoic acid] |
| 6.00 to 7.00 | O=C(O)c1ccc(CC(=O)c2c(F)cc(O)cc2F)c(F)c1 [VI-10, 4-(2-(2,6-difluoro-4-hydroxyphenyl)-2-oxoethyl)-3-fluorobenzoic acid] |
| > 7.00 | O=c1[nH]nc(-c2ccc(-c3ccc4cc(O)ccc4n3)cc2)o1 [Compound I-24] |
| 5.00 to 6.00 | O=C(O)C1CCN(c2ccc3cc(O)ccc3n2)CC1 [Compound I-5] |
| 5.00 to 6.00 | O=C(O)c1ccc(NCc2ccc(O)cc2F)c(F)c1 [VI-33, 3-fluoro-4-((2-fluoro-4-hydroxybenzyl)amino)benzoic acid] |
| > 7.00 | O=C(O)c1ccc(-c2ccc3cc(O)ccc3c2)cc1O [III-35, 2-hydroxy-4-(6-hydroxynaphthalen-2-yl)benzoic acid] |
| > 7.00 | N#Cc1cc(C(=O)O)ccc1-c1ccc2cc(O)ccc2n1 [Compound I-49, 3-cyano-4-(6-hydroxyquinolin-2-yl)benzoic acid] |
| 5.00 to 6.00 | O=C(O)[C@H]1CC[C@@H](c2nc3ccc(O)cc3nc2C(F)(F)F)CC1 [II-28, (cis)-4-(6-hydroxy-3-(trifluoromethyl)quinoxalin-2-yl)cyclohexanecarboxylic acid] |
| > 7.00 | Cc1cc2cc(O)ccc2cc1-c1ccc(C(=O)O)cc1 [III-27, 4-(6-hydroxy-3-methylnaphthalen-2-yl)benzoic acid] |
| > 7.00 | Cc1cc(C(=O)O)ccc1-c1ccc2c(F)c(O)ccc2c1 [III-33] |
| > 7.00 | O=c1c(Oc2ccc([N+](=O)[O-])c(O)c2)c(C(F)(F)F)oc2cc(O)ccc12 [Compound V-16, 7-hydroxy-3-(3-hydroxy-4-nitrophenoxy)-2-(trifluoromethyl)-4H-chromen-4-one] |
| 5.00 to 6.00 | COc1ccc(-c2oc3cc(O)ccc3c(=O)c2Oc2ccc(C(=O)O)cc2)cc1 [Compound V-9, 4-(7-hydroxy-2-(4-methoxyphenyl)-4-oxo-4H-chromen-3-yloxy)benzoic acid] |
| > 7.00 | COc1cc(C(=O)O)ccc1-c1ccc2cc(O)ccc2n1 [Compound I-14] |

| pIC50 | SMILES |
| --- | --- |
| > 7.00 | O=C(O)c1ccc(-c2ccc3cc(O)ccc3c2F)cc1 [III-26, 4-(1-fluoro-6-hydroxynaphthalen-2-yl)benzoic acid] |
| > 7.00 | O=C(O)c1ccc(-c2ncc3cc(O)ccc3n2)c(F)c1 [II-6] |
| 5.00 to 6.00 | O=C(O)c1ccc(NCc2ccc(O)c(F)c2)c(F)c1 [VI-31, 3-fluoro-4-((3-fluoro-4-hydroxybenzyl)amino)benzoic acid] |
| > 7.00 | Cc1cc(C(=O)O)ccc1-c1ccc2c(F)c(O)ccc2n1 [Compound I-58] |
| > 7.00 | O=c1c(C2CCC(c3nn[nH]n3)CC2)c(C(F)(F)F)oc2cc(O)ccc12 (stereo not shown) [IV-36] |
| > 7.00 | N#Cc1c(-c2ccc(C(=O)O)cc2F)ccc2cc(O)ccc12 [III-29] |
| > 7.00 | O=C(O)c1ccc(-c2ccc3cc(O)ccc3n2)c(O)c1 [Compound I-55, 3-hydroxy-4-(6-hydroxyquinolin-2-yl)benzoic acid] |
| > 7.00 | O=C(O)c1ccc(-c2ccc3c(F)c(O)ccc3n2)cc1 [Compound I-53, 4-(5-fluoro-6-hydroxyquinolin-2-yl)benzoic acid] |
| > 7.00 | Cc1oc2cc(O)ccc2c(=O)c1-c1ccc(-c2nnn[nH]2)cc1 [IV-28] |
| 5.00 to 6.00 | Nc1cc(-c2ccc(C(=O)O)cc2)nc2ccc(O)cc12 [Compound I-51, 4-(4-amino-6-hydroxyquinolin-2-yl)benzoic acid] |
| > 7.00 | COc1cc(C(=O)O)ccc1-c1c(C(F)(F)F)oc2cc(O)ccc2c1=O [IV-20] |
| > 7.00 | O=C(O)c1ccc(-c2ccc3cc(O)ccc3c2)c(C(F)(F)F)c1 [III-20, 4-(6-hydroxynaphthalen-2-yl)-3-(trifluoromethyl)benzoic acid] |
| 5.00 to 6.00 | O=C(O)c1ncc(-c2ccc3cc(O)ccc3c2)cn1 [III-14] |
| > 7.00 | O=C(O)c1ccc(-c2cc3ccc(O)cc3cc2F)cc1 [III-23, 4-(3-fluoro-6-hydroxynaphthalen-2-yl)benzoic acid] |
| 6.00 to 7.00 | O=C(O)c1csc(-c2c(C(F)(F)F)oc3cc(O)ccc3c2=O)c1 [IV-35] |
| > 7.00 | Cc1cc2cc(O)ccc2nc1-c1ccc(-c2nnn[nH]2)cc1 [Compound I-2] |

same assay, conditions: Table 7; GSNOR inhibition, IC50 range class a/b/c; read-out: IC50

| pIC50 | SMILES |
| --- | --- |
| 5.00 to 6.00 | O=C(O)c1ccc(-c2ccc(-c3ccc(O)cc3)[nH]2)cc1 [VII-23, 4-(5-(4-hydroxyphenyl)-1H-pyrrol-2-yl)benzoic acid] |
| > 7.00 | O=C(O)c1ccc(-c2csc(-c3ccc(O)c(F)c3)n2)s1 [VII-3, 5-(2-(3-fluoro-4-hydroxyphenyl)thiazol-4-yl)thiophene-2-carboxylic acid] |
| 6.00 to 7.00 | O=C(O)c1ccc(-c2csc(-c3ccc(O)c(F)c3)n2)cc1 [VII-6, 4-(2-(3-fluoro-4-hydroxyphenyl)thiazol-4-yl)benzoic acid] |
| > 7.00 | CC(C)Cn1c(-c2ccc(O)cc2)ccc1-c1ccc(C(=O)O)cc1 [VII-29, 4-(5-(4-hydroxyphenyl)-1-isobutyl-1H-pyrrol-2-yl)benzoic acid] |
| > 7.00 | CC(C)OCCCn1c(-c2ccc(O)cc2)ccc1-c1ccc(C(=O)O)cc1 [VII-31, 4-(5-(4-hydroxyphenyl)-1-(3-isopropoxypropyl)-1H-pyrrol-2-yl)benzoic acid] |
| 6.00 to 7.00 | O=C(O)c1ccc(-c2ccc(-c3ccc(O)cc3)cc2)cc1 [VII-11, 4″-hydroxy-[1,1′:4′,1″-terphenyl]-4-carboxylic acid] |
| 6.00 to 7.00 | CCCCn1c(-c2ccc(O)cc2)ccc1-c1ccc(C(=O)O)s1 [VII-26, 5-(1-butyl-5-(4-hydroxyphenyl)-1H-pyrrol-2-yl)thiophene-2-carboxylic acid] |
| > 7.00 | CCOCCn1c(-c2ccc(O)cc2)ccc1-c1ccc(C(=O)O)cc1 [VII-35, 4-(1-(2-ethoxyethyl)-5-(4-hydroxyphenyl)-1H-pyrrol-2-yl)benzoic acid] |
| 5.00 to 6.00 | O=C(O)c1ccc(-c2nc(-c3ccc(O)cc3)cs2)cc1 [VII-1, 4-(4-(4-hydroxyphenyl)thiazol-2-yl)benzoic acid] |

same assay, conditions: Table 8; GSNOR inhibition, IC50 range class a/b/c; read-out: IC50

| pIC50 | SMILES |
| --- | --- |
| > 7.00 | O=c1c2ccc(O)cc2cc(C(F)(F)F)n1[C@H]1CC[C@H](C(=O)O)CC1 [VIII-15, (trans)-4-(6-hydroxy-1-oxo-3-(trifluoromethyl)isoquinolin-2(1H)-yl)cyclohexanecarboxylic acid] |
| 5.00 to 6.00 | O=c1c2ccc(O)cc2ccn1[C@H]1CC[C@H](C(=O)O)CC1 [VIII-14, (trans)-4-(6-hydroxy-1-oxoisoquinolin-2(1H)-yl)cyclohexanecarboxylic acid] |
| > 7.00 | O=C(O)c1ccc(N2CCc3cc(O)ccc3C2=O)cc1 [VIII-4, 4-(6-hydroxy-1-oxo-3,4-dihydroisoquinolin-2(1H)-yl)benzoic acid] |
| 5.00 to 6.00 | O=C(O)c1ccc(-c2cc(=O)c3cc(O)ccc3[nH]2)c(Cl)c1 [VIII-9, 3-chloro-4-(6-hydroxy-4-oxo-1,4-dihydroquinolin-2-yl)benzoic acid] |
| > 7.00 | O=C(O)c1ccc(-n2ccc3cc(O)ccc3c2=O)cc1 [VIII-3, 4-(6-hydroxy-1-oxoisoquinolin-2(1H)-yl)benzoic acid] |
| 6.00 to 7.00 | Cn1c(-c2ccc(C(=O)O)cc2)cc2ccc(O)cc2c1=O [VIII-11, 4-(7-hydroxy-2-methyl-1-oxo-1,2-dihydroisoquinolin-3-yl)benzoic acid] |
| 5.00 to 6.00 | CC1Cc2cc(O)ccc2C(=O)N1[C@H]1CC[C@H](C(=O)O)CC1 (stereo partly drawn) [VIII-17, (trans)-4-(6-hydroxy-3-methyl-1-oxo-3,4-dihydroisoquinolin-2(1H)-yl)cyclohexanecarboxylic acid] |
